# Measured values from paper PMC11302339, “A series of pyrimidine-based antifungals with anti-mold activity disrupt ER function in Aspergillus fumigatus” (Microbiology Spectrum, 2024).
# Where two headings read alike, the source gives them in different places.
# Experiments:
# Assay in all cases: MIC testing (CLSI broth dilution)
# Assay type in all cases: cell-based
# A. fumigatus = conditions: Aspergillus fumigatus
# Method: (§1) MICs were determined using Clinical and Laboratory Standards Institute guidelines ([48], [49]). All yeasts were cultured overnight in 3 mL YPD at 30°C, then washed twice in sterile phosphate-buffered saline (PBS). Twofold serial dilutions of each drug were prepared in RMPI + MOPS, then 1 × 10^3 cells were added per well. For mold species, wells were inoculated with 1.25 × 10^3 conidia per well. Plates were incubated at 37°C for 24 (Candida spp. and S. cerevisiae), 48 (Aspergillus spp., M. circinelloides, S. apiospermum, and L. prolificans), or 72 (C. neoformans and F. oxysporum) hours. S. cerevisiae BY4743 MICs were tested in YPD due to nutritional requirements of this strain. Each assay was performed in technical duplicate in at least two independent experiments performed on different days.
# C. glabrata = conditions: Nakaseomyces glabratus; strain KK2001; CLSI conditions
# Method: as §1
# F. oxysporum = conditions: Fusarium oxysporum; strain DUMC Fo, clinical isolate; CLSI conditions, 72 h
# Method: as §1
# L. prolificans = conditions: Lomentospora prolificans; strain 90853; CLSI conditions
# Method: as §1
# M. circinelloides = conditions: Mucor circinelloides; strain CBS277.49; CLSI conditions
# Method: as §1
# S. apiospermum = conditions: Scedosporium apiospermum; strain MYA3635 (lab reference strain); CLSI conditions
# Method: as §1
smiles,measurement,setting,value
OC1CC(c2cc(N3CCC(CCc4ccccc4)CC3)ncn2)C1 (stereo not shown) [compound 1],MIC,"A. fumigatus; 48 h, strain CEA10, CLSI conditions, 48 h, read-out: MIC",16 µg/mL
same,MIC,"A. fumigatus; ATCC13073, strain ATCC13073, CLSI conditions, read-out: MIC",8 µg/mL
same,MIC,"A. fumigatus; strain AF293, CLSI conditions, read-out: MIC",16 µg/mL
same,MIC,"A. fumigatus; strain S001, clinical isolate, CLSI conditions, read-out: MIC",8 µg/mL
same,MIC,"A. fumigatus; strain S003, clinical isolate, CLSI conditions, read-out: MIC",4 µg/mL
same,MIC,"A. fumigatus; strain SPF93 (voriconazole-susceptible parent), CLSI conditions, read-out: MIC",8 µg/mL
same,MIC,"A. fumigatus; strain SPF98, drug-resistant isolate (cyp51A TR34 L98H), CLSI conditions",8 µg/mL
same,MIC,"A. fumigatus; A. fumigatus reference strains and clinical isolates, read-out: MIC",8 to 16 µg/mL
same,MIC,C. glabrata,64 µg/mL
same,MIC,F. oxysporum,> 64 µg/mL
same,MIC,L. prolificans,8 µg/mL
same,MIC,M. circinelloides,16 µg/mL
same,MIC,S. apiospermum,2 µg/mL
